# Source: PubChem BioAssay (NCI)
#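 Each compound was tested at five concentrations against cells in 96-well plates for 48 hours. Abbreviation: GI50, concentration required for 50% inhibition of growth. TGI marks complete inhibition of growth.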
# Columns and labels:
# Assay in all cases: NCI anticancer screen, dose series, 48 h
# SK-MEL-2 melanoma = test system: SK-MEL-2 melanoma
# SK-OV-3 ovarian = test system: SK-OV-3 ovarian
# DU-145 prostate = test system: DU-145 prostate
# OVCAR-4 ovarian = test system: OVCAR-4 ovarian
# LOX IMVI melanoma = test system: LOX IMVI melanoma
# OVCAR-3 ovarian = test system: OVCAR-3 ovarian
# NCI-H226 lung = test system: NCI-H226 lung
# NCI-H460 lung = test system: NCI-H460 lung
# SW-620 colon = test system: SW-620 colon
# K-562 leukemia = test system: K-562 leukemia
# MCF7 breast = test system: MCF7 breast
# NCI/ADR-RES ovarian = test system: NCI/ADR-RES ovarian
# MALME-3M melanoma = test system: MALME-3M melanoma
# U251 CNS = test system: U251 CNS
# OVCAR-5 ovarian = test system: OVCAR-5 ovarian
# COLO 205 colon = test system: COLO 205 colon
# HOP-92 NSCLC = test system: HOP-92 NSCLC
# UACC-62 melanoma = test system: UACC-62 melanoma
# ACHN renal = test system: ACHN renal
# HL-60(TB) leukemia = test system: HL-60(TB) leukemia
# SNB-19 CNS = test system: SNB-19 CNS
# HOP-62 NSCLC = test system: HOP-62 NSCLC
# NCI-H23 lung = test system: NCI-H23 lung
# UACC-257 melanoma = test system: UACC-257 melanoma
# BT-549 breast = test system: BT-549 breast
# MOLT-4 leukemia = test system: MOLT-4 leukemia
# HCT-15 colon = test system: HCT-15 colon
# SF-268 CNS = test system: SF-268 CNS
# SR leukemia = test system: SR leukemia
# EKVX NSCLC = test system: EKVX NSCLC
# OVCAR-8 ovarian = test system: OVCAR-8 ovarian
# IGROV1 ovarian = test system: IGROV1 ovarian
# PC-3 prostate = test system: PC-3 prostate
# M14 melanoma = test system: M14 melanoma
# A549 NSCLC = test system: A549 NSCLC
# TK-10 renal = test system: TK-10 renal
# HCC-2998 colon = test system: HCC-2998 colon
# MDA-MB-435 = test system: MDA-MB-435
# SK-MEL-5 melanoma = test system: SK-MEL-5 melanoma
# UO-31 renal = test system: UO-31 renal
# NCI-H522 lung = test system: NCI-H522 lung
# SN12C renal = test system: SN12C renal
# A498 renal = test system: A498 renal
# CCRF-CEM leukemia = test system: CCRF-CEM leukemia
# HT29 colon = test system: HT29 colon
# SF-539 CNS = test system: SF-539 CNS
# SK-MEL-28 melanoma = test system: SK-MEL-28 melanoma
# CAKI-1 renal = test system: CAKI-1 renal
# HS 578T breast = test system: HS 578T breast
# T-47D breast = test system: T-47D breast
# KM12 colon = test system: KM12 colon
# SF-295 CNS = test system: SF-295 CNS
# SNB-75 CNS = test system: SNB-75 CNS
# HCT-116 colon = test system: HCT-116 colon
# RPMI-8226 leukemia = test system: RPMI-8226 leukemia
# 786-0 renal = test system: 786-0 renal
# MDA-MB-231 breast = test system: MDA-MB-231 breast
structure (smiles),measurement,setting,value
CCN1C(=O)N(CC)C2SC(N/N=C/c3cccs3)=NC21 (stereo not drawn),GI50,SK-MEL-2 melanoma,360 nM
same,TGI,SK-MEL-2 melanoma,> 100000 nM
same,GI50,SK-OV-3 ovarian,532 nM
same,TGI,SK-OV-3 ovarian,> 100000 nM
same,GI50,DU-145 prostate,483 nM
same,TGI,DU-145 prostate,> 100000 nM
same,TGI,OVCAR-4 ovarian,> 100000 nM
same,GI50,LOX IMVI melanoma,446 nM
same,TGI,LOX IMVI melanoma,> 100000 nM
same,GI50,OVCAR-3 ovarian,333 nM
same,TGI,OVCAR-3 ovarian,2070 nM
same,GI50,NCI-H226 lung,1430 nM
same,TGI,NCI-H226 lung,> 100000 nM
same,GI50,NCI-H460 lung,333 nM
same,GI50,SW-620 colon,249 nM
same,TGI,SW-620 colon,> 100000 nM
same,GI50,K-562 leukemia,91.2 nM
same,TGI,K-562 leukemia,> 100000 nM
same,GI50,MCF7 breast,119 nM
same,TGI,MCF7 breast,> 100000 nM
same,GI50,NCI/ADR-RES ovarian,356 nM
same,TGI,NCI/ADR-RES ovarian,> 100000 nM
same,TGI,MALME-3M melanoma,> 100000 nM
same,GI50,U251 CNS,318 nM
same,TGI,U251 CNS,> 32600 nM
same,GI50,OVCAR-5 ovarian,527 nM
same,TGI,OVCAR-5 ovarian,> 100000 nM
same,GI50,COLO 205 colon,248 nM
same,TGI,COLO 205 colon,723 nM
same,GI50,HOP-92 NSCLC,922 nM
same,TGI,HOP-92 NSCLC,> 23300 nM
same,GI50,UACC-62 melanoma,141 nM
same,TGI,UACC-62 melanoma,> 100000 nM
same,GI50,ACHN renal,581 nM
same,TGI,ACHN renal,> 100000 nM
same,GI50,HL-60(TB) leukemia,186 nM
same,TGI,HL-60(TB) leukemia,658 nM
same,GI50,SNB-19 CNS,428 nM
same,TGI,SNB-19 CNS,> 100000 nM
same,GI50,HOP-62 NSCLC,470 nM
same,TGI,HOP-62 NSCLC,> 100000 nM
same,GI50,NCI-H23 lung,418 nM
same,TGI,NCI-H23 lung,> 100000 nM
same,GI50,UACC-257 melanoma,1050 nM
same,TGI,UACC-257 melanoma,> 100000 nM
same,GI50,BT-549 breast,211 nM
same,TGI,BT-549 breast,1270 nM
same,GI50,MOLT-4 leukemia,465 nM
same,TGI,MOLT-4 leukemia,> 100000 nM
same,GI50,HCT-15 colon,202 nM
same,TGI,HCT-15 colon,> 100000 nM
same,GI50,SF-268 CNS,1710 nM
same,TGI,SF-268 CNS,> 100000 nM
same,GI50,SR leukemia,54.6 nM
same,TGI,SR leukemia,> 26800 nM
same,GI50,EKVX NSCLC,655 nM
same,TGI,EKVX NSCLC,> 100000 nM
same,GI50,OVCAR-8 ovarian,398 nM
same,GI50,IGROV1 ovarian,579 nM
same,TGI,IGROV1 ovarian,> 100000 nM
same,GI50,PC-3 prostate,345 nM
same,TGI,PC-3 prostate,> 100000 nM
same,GI50,M14 melanoma,192 nM
same,TGI,M14 melanoma,> 100000 nM
same,GI50,A549 NSCLC,431 nM
same,TGI,A549 NSCLC,> 100000 nM
same,TGI,TK-10 renal,> 100000 nM
same,GI50,HCC-2998 colon,313 nM
same,TGI,HCC-2998 colon,> 93800 nM
same,GI50,MDA-MB-435,33.8 nM
same,TGI,MDA-MB-435,205 nM
same,GI50,SK-MEL-5 melanoma,523 nM
same,TGI,SK-MEL-5 melanoma,3360 nM
same,GI50,UO-31 renal,595 nM
same,TGI,UO-31 renal,> 100000 nM
same,GI50,NCI-H522 lung,81.1 nM
same,TGI,NCI-H522 lung,386 nM
same,GI50,SN12C renal,653 nM
same,TGI,SN12C renal,> 100000 nM
same,GI50,A498 renal,131 nM
same,TGI,A498 renal,705 nM
same,GI50,CCRF-CEM leukemia,360 nM
same,TGI,CCRF-CEM leukemia,> 100000 nM
same,GI50,HT29 colon,260 nM
same,TGI,HT29 colon,3200 nM
same,GI50,SF-539 CNS,198 nM
same,TGI,SF-539 CNS,823 nM
same,GI50,SK-MEL-28 melanoma,> 19700 nM
same,TGI,SK-MEL-28 melanoma,> 100000 nM
same,GI50,CAKI-1 renal,191 nM
same,TGI,CAKI-1 renal,> 100000 nM
same,GI50,HS 578T breast,286 nM
same,TGI,HS 578T breast,> 100000 nM
same,GI50,T-47D breast,> 45100 nM
same,TGI,T-47D breast,> 100000 nM
same,GI50,KM12 colon,232 nM
same,TGI,KM12 colon,> 100000 nM
same,GI50,SF-295 CNS,262 nM
same,TGI,SF-295 CNS,> 100000 nM
same,GI50,SNB-75 CNS,122 nM
same,GI50,HCT-116 colon,281 nM
same,TGI,HCT-116 colon,5430 nM
same,GI50,RPMI-8226 leukemia,348 nM
same,TGI,RPMI-8226 leukemia,> 100000 nM
same,GI50,786-0 renal,643 nM
same,TGI,786-0 renal,> 100000 nM
same,GI50,MDA-MB-231 breast,540 nM
same,TGI,MDA-MB-231 breast,> 100000 nM
